According to publication PMC8519022, “Diarylethene‐Based Photoswitchable Inhibitors of Serine Proteases” (Angewandte Chemie (International Ed. in English), 2021):
Where two headings read alike, the source gives them in different places. Blank lines part the entries; values can stand above or below the compound they belong to. *1 amine or outer side, *2 acyl side, *3 side chain or, on linkers, in order; H or OH if unused. Where a SMILES comes first, the peptide text is derived from it. Bridges are numbered along the chain shown (N, C = ends). X1 = Cc1sc(C(=O)[C@@H]2CCCN2[*:2])cc1C1=C(c2cc(C(=O)[*:1])sc2C)CCC1

How the values were obtained:
[1] = target: T1, α-chymotrypsin from bovine pancreas type II (Bos taurus, UniProt P00766); test: α-Chymotrypsin inhibition, IC50 at fixed enzyme and substrate concentration; format: biochemical; design: host or cells: bovine pancreas
Text: (§1) 6. Protease inhibition assays
(§2) With the second method, using
(§3) EpochTM 2 microplate spectrophotometer.
(§4) deionized ultrapure water.
(§5) concentration to higher). […] The
(§6) inhibitor) as the 100% enzyme activity.

[2] = target: T1, α-chymotrypsin from bovine pancreas type II; test: α-Chymotrypsin inhibition, Ki by Lineweaver-Burk analysis
Method: (§7) The inhibition of trypsin and α-chymotrypsin was investigated by two methods. First, the inhibition was determined at a fixed enzyme and substrate concentration, whereas the inhibitor concentration varied. By plotting the protease activity against an inhibitor’s concentration, IC50 (the half-maximal inhibitory concentration) was determined.
(§8) Lineweaver–Burk analysis (see below), the Ki values for all peptide inhibitors were determined with high accuracy.
(§9) All measurements were performed with p-nitroaniline-based chromogenic substrates (λabs = 405 nm) in 96-well microtiter plates using
EpochTM 2 microplate spectrophotometer. For trypsin measurements the Tris buffer (50 mM Tris-HCl, 25 mM CaCl2, 0.005% Tween® […]
solutions were thoroughly mixed with the multicha nnel pipette, and the kinetics of substrate hydrolysis was recorded with an interval […]
calculated. The activities at different inhibitor concentrations were then calculated by taking the control curves’ slope val ues (no […]
(§10) type II) was measured in the same way except that a different substrate, Ac-EAPF-pNA (Ac-Glu-Ala-Pro-Phe-pNA), was used (20
Inhibitory constants Ki were determined by Lineweaver-Burk (LWB) double-reciprocal analysis according to a published protocol.[S5] […]
Well contents were thoroughly mixed using a multichannel pipette, and a plate reader was used to monitor the hydrolysis kinetics […]

trypsin [3] = target: T2, trypsin (Bos taurus, UniProt P00760); test: Trypsin inhibition, IC50 at fixed enzyme and substrate concentration; format: biochemical
T2 sequence (P00760 24-246): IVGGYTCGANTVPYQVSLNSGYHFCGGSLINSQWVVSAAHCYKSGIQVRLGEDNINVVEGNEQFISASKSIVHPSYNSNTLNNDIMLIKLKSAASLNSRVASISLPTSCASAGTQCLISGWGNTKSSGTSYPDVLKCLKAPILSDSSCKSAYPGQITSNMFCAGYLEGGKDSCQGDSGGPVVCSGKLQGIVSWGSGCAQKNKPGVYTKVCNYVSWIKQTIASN
Text: as §1, §2, §3, §4, §5, §6

[4] = target: T3, Bos taurus trypsin 1 (T1) (Bos taurus, UniProt P00760); test: Trypsin inhibition, Ki by Lineweaver-Burk analysis;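 further: trypsin activity followed by spectrophotometric hydrolysis kinetics of the chromogenic substrate BAPNA in Tris buffer, Ki obtained from double-reciprocal Lineweaver–Burk plots at several substrate concentrations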
T3 sequence (P00760 24-246): T2 sequence (P00760 24-246)
Method: as §7, §8, §9
EpochTM 2 microplate spectrophotometer. For trypsin measurements the Tris buffer (50 mM Tris-HCl, 25 mM CaCl2, 0.005% Tween®
For the measurements, a fresh 0.92 µM trypsin solution was prepared from the storage aliquot and kept on ice.
A stock solution of the substrate BAPNA (Nα-Benzoyl-DL-arginine 4-nitroanilide hydrochloride) at the concentration of 50 mM in
aqueous dimethyl sulfoxide (DMSO) (100 mg of BAPNA in 4.6 mL of DMSO:water mixture 1:1) was pre pared and stored at RT.
peptide solutions at the concentration of 100 µM, which was further diluted to 10, 1, or 0.1 µM if required, were prepared in Milli-Q®
For the determination of IC50, a double dilution series of inhibit ors were prepared in a 96 -well plate (12 concentrations, two repeats
for each concentration, 200 µL of Tris buffer in each well). Subsequently, a trypsin solution (20 µL, 150 nM) was added to ea ch well
with the tested peptide and to the control row. Soluti ons in each well were intensely mixed using a multichannel pipette (from lower
concentration to higher). After a pre -incubation period (5 min), the substrate BAPNA was added to each well (20 µL, 25 mM).
solutions were thoroughly mixed with the multicha nnel pipette, and the kinetics of substrate hydrolysis was recorded with an interval
of 1 min between measurements over 20 min. The total volume in each well was 240 µL, final trypsin and BAPNA concentrations
were 12.5 nM and 2.08 mM, respectively. The mea n values of the two repeats of the slope of absorption vs. time curves were
calculated. The activities at different inhibitor concentrations were then calculated by taking the control curves’ slope val ues (no
inhibitor) as the 100% enzyme activity. The inh ibition activity IC 50 against α-chymotrypsin (α-chymotrypsin from bovine pancreas
as §10
Inhibitory constants Ki were determined by Lineweaver-Burk (LWB) double-reciprocal analysis according to a published protocol.[S5]
Briefly, a fresh inhibitor/enzyme mixture was prepared in a glass vial and distributed to 2x6 wells (200 µL in each well, enzyme
concentration after dilution 12 nM). An enzyme without an inhibitor was added to the control wells. Aliquots of varying substrate stock
solutions were added with a multichannel pipette to each well. For trypsin inhibition experiments, BAPNA (20 µL per well of 20, 22.7,
26, 29.8, 34, 40 mM) and for α-chymotrypsin Ac-EAPF-pNA (20 µL per well of 16, 12.48, 10, 8, 6.4, 5.44 mM) were used, respectively.
Well contents were thoroughly mixed using a multichannel pipette, and a plate reader was used to monitor the hydrolysis kinetics
(sampling interval of 1 min over 20 min).

trypsin [5] = target: T2, trypsin; conditions: for k H [M^−1 s^−1] (closed): pH 8.2
Method: Analysis of the proteolytic stability
(§11) Proteolytic stability of the peptides was characterized by determining hydrolysis rates (kH) by the action of trypsin in a 50 mM Tris–
(§12) HCl buffer, pH 8.2, supplemented with 25 mM CaCl2 and 0.005% Tween®20 at 22°C. The peptides at a concentration of 50 μM were
(§13) mixed with trypsin (0.5 μM) in a 2 mL total volume. At selected time intervals, 70 μL samples of the mixture were taken, quenched
(§14) by addition 130 μL 2% aqueous formic acid, and immediately analyzed by analytical HPLC. The kH values were calculated from the
(§15) time-dependent data assuming zero-order kinetics (zero-order kinetics applies due to the high substrate/enzyme ratio of 100 to 1).
(§16) For the fitting the linear part of the hydrolysis curve was taken excluding the last time point in which the entire peptide inhibitor was
(§17) analogues could hydrolyze at two positions: at the Lys (P1 position) of the inhibitory loop and after the stabilizing loop’s arginine
(§18) residue (P4 position).[S6] The ultimate product (i.e., cleaved at both positions) had, therefore, a MALDI-TOF-MS detectable mass
(§19) The identity of each peak was confirmed by MALDI -TOF-MS. Detection – 220 nm, hydrolysis time is indicated at each chromatogram.

[6] = Experimental: The photostability in repeated cycles of reversible photoisomerization was studied on three selected compounds (linear three-peptide […]
samples were prepared in the same manner as for UV-Vis absorption characterization, namely at 20 mM in deoxygenated water.
The UV irradiation was done at spectral range of 320 -400 nm, 167 mW/cm 2 for 15 s; the visible light irradiation at 570 nm, 143 mW/cm2 for 60 s (both using LUMATEC® light source).
Figure S3. Photostability study of the three selected peptides at 20 mM in deoxygenated water at 22°C in 15 cycles of reversible photoisomerization with visible (570 nm, 143 mW/cm2 for 60 s) and UV light (320-400 nm, 167 mW/cm2 for 15 s). The left plots show absorption spectra after each 5 cycles (normalized at 575 nm for ring-closed forms). The right plots show the % of ring-closed form measured as absorbance at 575 nm.

trypsin [7] = target: T2, trypsin; test: Proteolytic stability: T1-induced hydrolysis rate constants (kH); conditions: non-photoswitchable reference compound; peptide 50 μM, trypsin 0.5 μM, 50 mM Tris-HCl pH 8.2, 25 mM CaCl2, 0.005% Tween 20, 22°C, analytical HPLC, zero-order fit
Method: Analysis of the proteolytic stability
as §11, §12, §13, §14, §15, §16, §17, §18, §19

other E. coli strains = other E. coli strains in MHB medium; ref S7; cited from earlier work

IC50 ([1]; non-photoswitchable control, enzyme 12.5 nM, Ac-EAPF-pNA 1.33 mM, read-out: IC50, nM (α-chymotrypsin inhibition)): 6.6 nM | Ki [2]: 2.8 nM
Compound: CC[C@H](C)[C@@H]1NC(=O)[C@@H]2CCCN2C(=O)[C@@H]2CCCN2C(=O)[C@H]([C@@H](C)CC)NC(=O)[C@H](CO)NC(=O)[C@H](Cc2ccccc2)NC(=O)[C@H]([C@@H](C)O)NC(=O)[C@@H]2CSSC[C@H](NC1=O)C(=O)N[C@@H](Cc1ccccc1)C(=O)N1CCC[C@H]1C(=O)N[C@@H](CC(=O)O)C(=O)NCC(=O)N[C@@H](CCCNC(=N)N)C(=O)N2 [SFTI‐5F, reference compound] (cyclo(CFPDGRCTFSIPPI); disulfide 1-7)

Compound: CC[C@H](C)[C@@H]1NC(=O)[C@@H]2CCCN2C(=O)[C@@H]2CCCN2C(=O)[C@H]([C@@H](C)CC)NC(=O)[C@H](CO)NC(=O)[C@H](Cc2ccccc2)NC(=O)[C@H]([C@@H](C)O)NC(=O)[C@@H]2CSSC[C@H](NC1=O)C(=O)N[C@@H](Cc1ccccc1)C(=O)N[C@@H](CC(C)C)C(=O)N1CCC[C@H]1C(=O)c1cc(c(C)s1)C1=C(CCC1)c1cc(sc1C)C(=O)N[C@@H](C(C)C)C(=O)N[C@@H](CCCNC(=N)N)C(=O)N2 [Peptide S5F] (VRCTFSIPPICFL; disulfide 3-11; linker N-C via X1)
IC50 (trypsin [3]): 50000 to 100000 nM

Compound: CC[C@H](C)[C@@H]1NC(=O)[C@@H]2CCCN2C(=O)[C@@H]2CCCN2C(=O)[C@H]([C@@H](C)CC)NC(=O)[C@H](CO)NC(=O)[C@H](CCCCN)NC(=O)[C@H]([C@@H](C)O)NC(=O)[C@@H]2CSSC[C@H](NC1=O)C(=O)N[C@@H](CCCNC(=N)N)C(=O)N[C@@H](CC(C)C)C(=O)N1CCC[C@H]1C(=O)c1cc(c(C)s1)C1=C(CCC1)c1cc(sc1C)C(=O)N[C@@H](C(C)C)C(=O)N[C@@H](Cc1ccccc1)C(=O)N2 [Peptide S10i] (VFCTKSIPPICRL; disulfide 3-11; linker N-C via X1)
Ki ([4]; K i [nM] (closed)): 44.8 ± 2.2 nM | Ki ([4]; K i [nM] (open)): 5.1 ± 0.4 nM | k H (closed) /k H (open) (trypsin [5]): 4.2 | k H [M^−1 s^−1] (closed) (trypsin [5]): 2.2±0.3×10^−4 M^−1 s^−1 | degradation in repeated cycles of reversible photoisomerization [6]: less than 30%

Compound: CC(=O)N[C@@H](C)C(=O)N1CCC[C@H]1C(=O)c1cc(C2=C(c3cc(C(=O)N[C@@H](C)C(N)=O)sc3C)CCC2)c(C)s1 [Ac‐Ala‐1‐Ala‐NH2]
degradation in repeated cycles of reversible photoisomerization ([6]; 15 cycles, UV 320-400 nm 167 mW/cm2 15 s, visible 570 nm 143 mW/cm2 60 s, 20 mM in deoxygenated water, 22°C, absorbance 575 nm): less than 30%

IC50 (trypsin [3]; non-photoswitchable reference, trypsin 12.5 nM, BAPNA 2.08 mM, Tris pH 8.2, 5 min pre-incubation, read-out: IC50, nM (trypsin inhibition)): 15.6 nM | k H [M^−1 s^−1] (trypsin [7]): 2.0±0.2×10^−5 M^−1 s^−1
Compound: CC[C@H](C)[C@@H]1NC(=O)[C@@H]2CCCN2C(=O)[C@@H]2CCCN2C(=O)[C@H]([C@@H](C)CC)NC(=O)[C@H](CO)NC(=O)[C@H](CCCCN)NC(=O)[C@H]([C@@H](C)O)NC(=O)[C@@H]2CSSC[C@H](NC1=O)C(=O)N[C@@H](CCCNC(=N)N)C(=O)N1CCC[C@H]1C(=O)N[C@@H](CC(=O)O)C(=O)NCC(=O)N[C@@H](Cc1ccccc1)C(=O)N2 [SFTI‐1i, reference compound] (cyclo(CRPDGFCTKSIPPI); disulfide 1-7)

Compound: CC[C@H](C)[C@H](NC(=O)[C@H](CCCNC(=N)N)NC(=O)[C@H](CCCNC(=N)N)NC(=O)[C@H](Cc1ccccc1)NC(=O)[C@H](CC(C)C)NC(=O)[C@H](CCCNC(=N)N)NC(=O)[C@@H](N)CCCNC(=N)N)C(=O)N[C@@H](CC(C)C)C(=O)N[C@@H](CCCNC(=N)N)C(=O)N[C@@H](Cc1c[nH]c2ccccc12)C(=O)N[C@@H](CC(C)C)C(N)=O [BP100‐RW] (H-RRLFRRILRWL-NH2)
MIC (other E. coli strains): 0.2 to 0.5 µg/mL

Compound: CC[C@H](C)[C@@H]1NC(=O)[C@@H]2CCCN2C(=O)[C@@H]2CCCN2C(=O)[C@H]([C@@H](C)CC)NC(=O)[C@H](CO)NC(=O)[C@H](CCCCN)NC(=O)[C@H]([C@@H](C)O)NC(=O)[C@@H]2CSSC[C@H](NC1=O)C(=O)N[C@@H](Cc1ccccc1)C(=O)N[C@@H](CC(C)C)C(=O)N1CCC[C@H]1C(=O)c1cc(c(C)s1)C1=C(CCC1)c1cc(sc1C)C(=O)N[C@@H](C(C)C)C(=O)N[C@@H](CCCNC(=N)N)C(=O)N2 [Peptide S10n] (VRCTKSIPPICFL; disulfide 3-11; linker N-C via X1)
Ki ([4]; K i [nM] (closed)): 181 ± 7 nM | Ki ([4]; K i [nM] (open)): 17.5 ± 0.7 nM | k H (closed) /k H (open) (trypsin [5]): 15.7 | k H [M^−1 s^−1] (closed) (trypsin [5]): 3.6±0.3×10^−3 M^−1 s^−1 | IC50 [1]: 50000 to 100000 nM

Compound: CC[C@H](C)[C@@H]1NC(=O)[C@@H]2CCCN2C(=O)[C@@H]2CCCN2C(=O)[C@H]([C@@H](C)CC)NC(=O)[C@H](CO)NC(=O)[C@H](CCCCN)NC(=O)[C@H]([C@@H](C)O)NC(=O)[C@H](C)NC(=O)[C@H](CCCNC(=N)N)NC(=O)c2cc(c(C)s2)C2=C(CCC2)c2cc(sc2C)C(=O)[C@@H]2CCCN2C(=O)[C@H](Cc2ccccc2)NC(=O)[C@H](C)NC1=O [Peptide S2] (RATKSIPPIAF; linker N-C via X1)
Ki ([4]; K i [nM] (closed)): 659 ± 33 nM | Ki ([4]; K i [nM] (open)): 203 ± 6 nM | degradation in repeated cycles of reversible photoisomerization [6]: less than 30%
